Results on 66 molecules are retold here after PubChem BioAssay AID504713 (Southern Research Specialized Biocontainment Screening …, 2011).

Structures are written as SMILES. Activity calls are given as the source filed them. No rule for the calls is given here.

A word on the CC50: it is the concentration that lowers cell viability or growth by half. In general, viability refers to a read-out of living cells in per cent, often relative to untreated cells.

One assay has as its system mammalian cell cytotoxicity, viability, CC50. Briefly: mammalian cell cytotoxicity, cytotoxicity control, set 3 (AID 504713).
Conditions: not given
With `COc1ccc2nc(NC(=O)COc3ccc(C)cc3)sc2c1`, the CC50 was 87.4 µM.
As to `CC(Oc1ccc(Cl)cc1)C(=O)Nc1nc2ccccc2s1` (stereo unspecified), the CC50 was 92 µM.
Same read-out and setting: then `CCOc1ccc2c(c1)c(C(C)=O)c(C)n2-c1ccccc1C`, with 90.1 µM; and `CCOc1ccc2nc(NC(=O)C3(c4ccccc4)CCCC3)sc2c1`, with 87.6 µM; and `COc1ccc(Cl)cc1C(=O)Nc1nc2ccccc2[nH]1`, with 60.5 µM.
Regarding `CCOc1ccc2c(c1)c(C(C)=O)c(C)n2-c1ccccc1Cl`, the 50% cytotoxic concentration (CC50) is 85.7 µM.
Same read-out and setting: then `N/C(=N\c1nc2ccccc2o1)NC(=O)c1ccccc1`, with 19.3 µM; and `N/C(=N\c1nc2cc(Cl)ccc2o1)NC(=O)c1ccccc1`, with 43.2 µM.
Same read-out and setting: then `Cc1ccc2oc(/N=C(\N)NC(=O)c3ccccc3)nc2c1`, with 35.1 µM; and `Cc1ccc2sc(NC(=O)COc3ccccc3)nc2c1C`, with 36.6 µM.
As for `c1ccc(-c2cc(N3CCOCC3)nc3ccccc23)cc1`, the CC50 was 90.8 µM.
For the molecule `N/C(=N\c1nc2ccccc2o1)NC(=O)c1ccc(F)cc1`, the CC50 was 57.3 µM.
The same measure, in the same setting: then `O=C(Nc1nc2ccccc2[nH]1)c1cc2cc(Br)ccc2o1`, with 41.7 µM.
`O=C(Nc1ccccc1)Nc1csc2ccccc12`: the CC50 is 76.6 µM.

Tested on in another assay: not listed separately
The description is as above. The following applies: mammalian cell cytotoxicity, viability, CC50; at 100 µM (top of the series).
Regarding `Cc1cc(C)c(OCC(=O)Nc2nc3ccc(C)cc3s2)c(C)c1`, the viability was 97.6% (inactive).
`Cc1onc(-c2c(Cl)cccc2Cl)c1/C(N)=N/OC(=O)C1CC1`: the viability is 107% (inactive).
On to `COC(=O)c1c(C)[nH]c2ccc(Cl)cc12`, for which the viability was 80% (inactive).
Still for that read-out and setting: as for `Cc1ccc(OC(C)C(=O)Nc2ncccn2)c(C)c1` (stereo unspecified), the figure is 96.2% (inactive); as for `COc1ccc2nc(NC(=O)COc3ccccc3)sc2c1`, 109% (inactive); as for `Cc1ccc(OCC(=O)Nc2cccc3c(NC(=O)COc4ccc(C)cc4C)cccc23)c(C)c1`, 100% (inactive).
Same read-out and setting: then `Cc1ccccc1OCC(=O)Nc1nnn(C)n1`, with 95.7% (inactive); and `CCOc1ccc2c(c1)cc(C)n2-c1ccccc1`, with 95.5% (inactive); and `CC(=O)c1c(C)n(-c2ccc(C)cc2)c2ccc(O)cc12`, with 94.9% (inactive).
Same read-out and setting: as for `CCOc1ccc2nc(NC(=O)COc3ccc(Cl)c(C)c3)sc2c1`, the figure is 112% (inactive); as for `CC(=O)c1c(C)n(-c2ccccc2C)c2ccc(O)cc12`, 95.5% (inactive).
In the case of `O=C(CC12CC3CC(CC(C3)C1)C2)NCc1ccc(F)cc1`, the viability is 99.1% (inactive).
The same measure, in the same setting: then `O=C(COc1ccc(Cl)cc1)Nc1nc2ccc(F)cc2s1`, with 96.1% (inactive); and `CC(=O)c1c(C)n(-c2ccccc2)c2ccc(O)cc12`, with 85% (inactive).
Same read-out and setting: as for `COc1cccc(NC(=O)C2CC2)c1`, the figure is 90.2% (inactive); as for `COc1ccc2nc(NC(=O)COc3c(C)cc(C)cc3C)sc2c1`, 94.5% (inactive).
With `O=C(COc1ccccc1Cl)Nc1nc2ccccc2s1`, the viability is 92.2% (inactive).
On to `c1ccc(Nc2ncnc3c2oc2ccccc23)cc1`, for which the viability was 88% (inactive).
Consider `Cc1cc2ccccc2n1-c1ccccc1`, for which the viability was 93.4% (inactive).
On the same count and under the same terms, as for `S=C(Nc1ccccc1)Nc1ccc(Cl)cn1`, the figure is 107% (inactive).
On to `CN(NC(=O)c1c(Cl)cccc1Cl)c1cccc(Cl)n1`, for which the viability was 93.6% (inactive).
Still for that read-out and setting: as for `COc1ccc2c(c1)cc(C)n2-c1ccccc1`, the figure is 92.9% (inactive); as for `Cc1ccc(OCC(=O)Nc2ccc3c4c(cccc24)CC3)c(C)c1`, 80.3% (inactive).
Same read-out and setting: as for `O=C(Nc1nc2ccccc2[nH]1)c1ccc(Cl)c(Cl)c1`, the figure is 90.6% (inactive).
Same read-out and setting: as for `CCOc1ccc2nc(NC(=O)COc3ccccc3)sc2c1`, the figure is 86% (inactive); as for `N/C(=N\c1nc2ccccc2o1)NC(=O)c1ccccc1F`, 99.9% (inactive); as for `O=C(COC(=O)C1CC1)c1c[nH]c2ccccc12`, 98.9% (inactive).
For `N/C(=N\c1nc2ccccc2o1)NC(=O)c1ccccc1Br`, the viability was 87% (inactive).
Same read-out and setting: then `Cc1cccc(C)c1OCC(=O)Nc1nc2ccccc2s1`, with 93.4% (inactive); and `COc1ccc2nc(NC(=O)COc3ccc(Cl)cc3)sc2c1`, with 95.2% (inactive); and `O=C(CSc1n[nH]c(=O)n1C1CC1)c1ccc2c(c1)OCCO2`, with 104% (inactive).
Still for that read-out and setting: then `COc1cccc(NC(=S)Nc2cc(C)cc(C)n2)c1`, with 100% (inactive); and `c1ccc(OCc2nnc(-c3ccccc3)o2)cc1`, with 95.4% (inactive); and `CC(=O)Nc1ccc2nc(NC(=O)COc3ccccc3)sc2c1`, with 96.2% (inactive).
Same read-out and setting: then `Cc1cccnc1NC(=S)NC(=O)c1cncc(Br)c1`, with 108% (inactive); and `Cc1ccc(OCC(=O)Nc2nc3c(Cl)cccc3s2)cc1`, with 108% (inactive).
For the molecule `Cc1cc2cc(O)ccc2[nH]1`, the viability is 103% (inactive).
Turning to `CCOc1ccc2nc(NC(=O)c3cnccn3)sc2c1`, the viability is 80.3% (inactive).
Regarding `O=C(COC(=O)C1=COCCO1)Nc1ccc2c(c1)OCO2`, the viability was 94.5% (inactive).
Still for that read-out and setting: as for `CCOc1ccc2c(c1)c(C(C)=O)c(C)n2Cc1ccco1`, the figure is 97.1% (inactive); as for `COc1ccc2[nH]c(C)cc2c1`, 103% (inactive); as for `CCOc1ccc(NC(=O)COc2ccc(C)cc2C)cc1`, 97.5% (inactive).
The same measure, in the same setting: then `Cc1cc(C)c(OCC(=O)Nc2nc3ccccc3[nH]2)c(C)c1`, with 88.5% (inactive).
On the same count and under the same terms, as for `O=C(COc1cccc2ccccc12)Nc1nc2ccccc2s1`, the figure is 82.9% (inactive); as for `N/C(=N\c1nc2ccccc2o1)NC(=O)C1CC1`, 83% (inactive).
Turning to `CC(C)(C)c1ccc(OCC(=O)Nc2nc3ccccc3s2)cc1`, the viability was 98.8% (inactive).
As for `O=C(O)CCC(=O)Nc1nc2ccccc2s1`, the viability is 102% (inactive).
For `COC(=O)c1ccc2nc(NC(=O)COc3ccccc3)sc2c1`, the viability is 99.9% (inactive).
Consider `CCOc1ccc2nc(NC(=O)Cc3ccc(OC)cc3)sc2c1`, for which the viability was 100% (inactive).
On the same count and under the same terms, as for `CC(=O)c1c(C)n(-c2ccccc2)c2ccc(OS(=O)(=O)C(F)(F)F)cc12`, the figure is 92.2% (inactive); as for `CC(=O)Nc1ccc2nc(NC(=O)Cc3ccccc3)sc2c1`, 95.1% (inactive).
As for `Cc1ccc(OCC(=O)Nc2cccc3ccccc23)c(C)c1`, the viability was 93.3% (inactive).
